In patent US20240270762A1, “PENICILLIN-BINDING PROTEIN INHIBITORS” (priority 2021, published 2024):
In brackets after ≈: the same amount, converted by molar mass.

Experiments:
[1] = target: T1, PBP3 from Escherichia coli (K-12) (Escherichia coli, UniProt P0AD68); experiment: Bocillin-FL fluorescence polarization competition binding, E. coli PBP3
T1 construct: made in house
Procedure, shortened: (§1)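 Purified PBP was preincubated with inhibitor (E. coli PBP3 1.5 μM, 30 min; P. aeruginosa PBP3 0.75 μM, A. baumannii PBP3 0.2 μM and PBP1a 1 μM, 15 min), then Bocillin-FL (0.1 μM; 0.05 μM for PBP1a) added and FP read up to 60 min. EC50 = 50% loss of bound probe.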

[2] = target: T2, PBP3 from Pseudomonas aeruginosa (PAO1) (Pseudomonas aeruginosa, UniProt G3XD46); experiment: Bocillin-FL fluorescence polarization competition binding, P. aeruginosa PBP3; settings: Binding affinity to P. aeruginosa PBP3; fluorescence polarization competition binding assay using Bocillin-FL; read-out: P. aeruginosa PBP3 Potency
T2 construct: made in house
T2 sequence (G3XD46 whole entry): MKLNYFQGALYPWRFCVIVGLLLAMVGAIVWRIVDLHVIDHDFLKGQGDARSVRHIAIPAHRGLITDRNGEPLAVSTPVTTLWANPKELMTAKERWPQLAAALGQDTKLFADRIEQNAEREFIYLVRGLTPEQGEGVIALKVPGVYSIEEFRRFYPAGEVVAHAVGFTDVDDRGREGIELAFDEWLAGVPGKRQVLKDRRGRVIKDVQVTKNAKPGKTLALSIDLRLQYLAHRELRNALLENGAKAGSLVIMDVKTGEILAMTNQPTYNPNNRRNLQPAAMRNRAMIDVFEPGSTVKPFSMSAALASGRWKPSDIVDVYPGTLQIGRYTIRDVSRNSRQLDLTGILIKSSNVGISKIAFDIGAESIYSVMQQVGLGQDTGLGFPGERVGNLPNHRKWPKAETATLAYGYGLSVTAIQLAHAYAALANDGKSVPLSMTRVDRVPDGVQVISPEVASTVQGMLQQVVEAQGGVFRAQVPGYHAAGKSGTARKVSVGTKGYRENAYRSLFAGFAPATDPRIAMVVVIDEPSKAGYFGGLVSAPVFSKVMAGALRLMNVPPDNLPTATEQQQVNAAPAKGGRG
Procedure, shortened: as §1

E. coli AG100A = experiment: Broth microdilution MIC in CAMHB; assay type: cell-based; settings: Escherichia coli, read-out: MIC E. coli AG100A
[3] = test system: N. gonorrhoeae ATCC 49226; experiment: Liquid broth MIC in Fastidious broth; settings: Neisseria gonorrhoeae, ATCC49226, read-out: Minimum Inhibitory Concentration (MIC), N. gonorrhoeae ATCC 49226
N. gonorrhoeae WHO G = experiment: Liquid broth MIC in Fastidious broth; settings: Neisseria gonorrhoeae, read-out: Minimum Inhibitory Concentration (MIC), N. gonorrhoeae WHO G
N. gonorrhoeae WHO L = experiment: Liquid broth MIC in Fastidious broth; settings: Neisseria gonorrhoeae, read-out: Minimum Inhibitory Concentration (MIC), N. gonorrhoeae WHO L
N. gonorrhoeae WHO Q = experiment: Liquid broth MIC in Fastidious broth; settings: Neisseria gonorrhoeae, read-out: Minimum Inhibitory Concentration (MIC), N. gonorrhoeae WHO Q
N. gonorrhoeae CDC-0197 = experiment: Liquid broth MIC in Fastidious broth; settings: Neisseria gonorrhoeae, CDC0197, read-out: Minimum Inhibitory Concentration (MIC), N. gonorrhoeae CDC-0197

T1 sequence (P0AD68 1-577): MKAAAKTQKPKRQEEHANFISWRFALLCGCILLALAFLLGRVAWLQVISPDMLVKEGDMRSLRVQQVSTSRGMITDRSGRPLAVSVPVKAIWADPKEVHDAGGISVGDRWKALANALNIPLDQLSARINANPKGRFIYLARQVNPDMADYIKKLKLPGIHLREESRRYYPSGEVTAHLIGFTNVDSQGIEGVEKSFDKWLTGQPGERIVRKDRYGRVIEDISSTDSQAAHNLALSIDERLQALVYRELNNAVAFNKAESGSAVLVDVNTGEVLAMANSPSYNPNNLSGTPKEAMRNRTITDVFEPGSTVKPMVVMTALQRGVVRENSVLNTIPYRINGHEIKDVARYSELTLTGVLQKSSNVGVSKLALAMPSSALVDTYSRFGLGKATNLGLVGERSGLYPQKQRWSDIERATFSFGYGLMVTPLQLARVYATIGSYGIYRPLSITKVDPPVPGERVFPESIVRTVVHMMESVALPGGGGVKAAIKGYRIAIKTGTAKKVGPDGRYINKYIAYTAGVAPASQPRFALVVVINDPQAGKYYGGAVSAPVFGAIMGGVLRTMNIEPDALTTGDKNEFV

Compound	EC50 [1] [µM]	IC50 [2] [µM]	MIC (E. coli AG100A) [µg/mL]	MIC [3] [µg/mL]	MIC (N. gonorrhoeae WHO G) [µg/mL]	MIC (N. gonorrhoeae WHO L) [µg/mL]	MIC (N. gonorrhoeae WHO Q) [µg/mL]	MIC (N. gonorrhoeae CDC-0197) [µg/mL]
Cn1cccc(C(=O)N[C@H](C(=O)N[C@H]2Cc3cccc(C(=O)O)c3OB2O)c2ccc(P(=O)(O)O)cc2)c1=O (single isomer, unassigned) [Example 181]	50 to 250	50 to 250	> 128	16 to 32 (≈ 28.8 to 57.6 µM)	4 to 8 (≈ 7.2 to 14.4 µM)	16 to 32 (≈ 28.8 to 57.6 µM)	16 to 32 (≈ 28.8 to 57.6 µM)	16 to 32 (≈ 28.8 to 57.6 µM)
CCN1CCN(C(=O)N[C@@H](C(=O)N[C@H]2Cc3cccc(C(=O)O)c3OB2O)c2ccc(P(C)(=O)O)cc2)C(=O)C1=O (single isomer, unassigned) [Example 47]	< 10	< 10	8 to 16 (≈ 13.6 to 27.3 µM)	< 1	< 1	4 to 8 (≈ 6.82 to 13.6 µM)	1 to 2 (≈ 1.71 to 3.41 µM)	1 to 2 (≈ 1.71 to 3.41 µM)
CS(=O)(=O)N1CCC[C@@H]1C(=O)N[C@@H](C(=O)N[C@H]1Cc2cccc(C(=O)O)c2OB1O)c1ccc(P(=O)(O)O)cc1 [Example 35, (R)-2-hydroxy-3-((R)-2-((R)-1-(methylsulfonyl)pyrrolidine-2-carboxamido)-2-(4-phosphonophenyl)acetamido)-3,4-dihydro-2H-benzo[e][1,2]oxaborinine-8-carboxylic acid]	10 to 50	< 10	> 128	1 to 2 (≈ 1.68 to 3.36 µM)	1 to 2 (≈ 1.68 to 3.36 µM)	16 to 32 (≈ 26.9 to 53.8 µM)	4 to 8 (≈ 6.72 to 13.4 µM)	4 to 8 (≈ 6.72 to 13.4 µM)
O=C1CC[C@H](C(=O)NC(C(=O)N[C@H]2Cc3cccc(C(=O)O)c3OB2O)c2ccc(P(=O)(O)O)cc2)N1 (stereo partly drawn) [Example 53, (3R)-2-hydroxy-3-(2-((R)-5-oxopyrrolidine-2-carboxamido)-2-(4-phosphonophenyl)acetamido)-3,4-dihydro-2H-benzo[e][1,2]oxaborinine-8-carboxylic acid]	50 to 250	10 to 50	> 128	1 to 2 (≈ 1.88 to 3.76 µM)	1 to 2 (≈ 1.88 to 3.76 µM)	16 to 32 (≈ 30.1 to 60.2 µM)	16 to 32 (≈ 30.1 to 60.2 µM)	4 to 8 (≈ 7.53 to 15.1 µM)
CC(C)C(=O)NC(C(=O)N[C@H]1Cc2cccc(C(=O)O)c2OB1O)c1ccc(P(=O)(O)O)cc1 (stereo partly drawn) [Example 28, (3R)-2-hydroxy-3-(2-isobutyramido-2-(4-phosphonophenyl)acetamido)-3,4-dihydro-2H-benzo[e][1,2]oxaborinine-8-carboxylic acid]	50 to 250	10 to 50	> 128	16 to 32 (≈ 32.6 to 65.3 µM)	4 to 8 (≈ 8.16 to 16.3 µM)	16 to 32 (≈ 32.6 to 65.3 µM)	16 to 32 (≈ 32.6 to 65.3 µM)	16 to 32 (≈ 32.6 to 65.3 µM)
CN1CCC[C@@H]1C(=O)N[C@@H](C(=O)N[C@H]1Cc2cccc(C(=O)O)c2OB1O)c1ccc(P(=O)(O)O)cc1 (racemic) [Example 54, (R)-2-hydroxy-3-((S)-2-((R)-1-methylpyrrolidine-2-carboxamido)-2-(4-phosphonophenyl)acetamido)-3,4-dihydro-2H-benzo[e][1,2]oxaborinine-8-carboxylic acid and (R)-2-hydroxy-3-((R)-2-((R)-1-methylpyrrolidine-2-carboxamido)-2-(4-phosphonophenyl)acetamido)-3,4-dihydro-2H-benzo[e][1,2]oxaborinine-8-carboxylic acid]	50 to 250	50 to 250	> 128	16 to 32 (≈ 30.1 to 60.2 µM)	16 to 32 (≈ 30.1 to 60.2 µM)	16 to 32 (≈ 30.1 to 60.2 µM)	16 to 32 (≈ 30.1 to 60.2 µM)	4 to 8 (≈ 7.53 to 15.1 µM)
CCN1CCN(C(=O)NC(C(=O)N[C@H]2Cc3cccc(C(=O)O)c3OB2O)c2ccc(P(=O)(O)O)cc2)C1=O (stereo partly drawn) [Example 42, (3R)-3-(2-(3-ethyl-2-oxoimidazolidine-1-carboxamido)-2-(4-phosphonophenyl)acetamido)-2-hydroxy-3,4-dihydro-2H-benzo[e][1,2]oxaborinine-8-carboxylic acid]	< 10	< 10	8 to 16 (≈ 14.3 to 28.6 µM)	< 1	< 1	1 to 2 (≈ 1.78 to 3.57 µM)	< 1	< 1
O=C(N[C@H](C(=O)N[C@H]1Cc2cccc(C(=O)O)c2OB1O)c1ccc(P(=O)(O)O)cc1)c1ccc(C(F)(F)F)cn1 (single isomer, unassigned) [Example 192]	10 to 50	< 10	32 to 64 (≈ 53.9 to 108 µM)	1 to 2 (≈ 1.69 to 3.37 µM)	1 to 2 (≈ 1.69 to 3.37 µM)	4 to 8 (≈ 6.74 to 13.5 µM)	1 to 2 (≈ 1.69 to 3.37 µM)	1 to 2 (≈ 1.69 to 3.37 µM)
O=C(O)c1cccc2c1OB(O)[C@@H](NC(=O)C(NC(=O)N1CCCC1=O)c1ccc(P(=O)(O)O)cc1)C2 (stereo partly drawn) [Example 57, (3R)-2-hydroxy-3-(2-(2-oxopyrrolidine-1-carboxamido)-2-(4-phosphonophenyl)acetamido)-3,4-dihydro-2H-benzo[e][1,2]oxaborinine-8-carboxylic acid]	10 to 50	< 10	32 to 64 (≈ 60.2 to 120 µM)	< 1	< 1	16 to 32 (≈ 30.1 to 60.2 µM)	1 to 2 (≈ 1.88 to 3.76 µM)	< 1
CC(C)S(=O)(=O)NC(C(=O)N[C@H]1Cc2cccc(C(=O)O)c2OB1O)c1ccc(P(=O)(O)O)cc1 (stereo partly drawn) [Example 60, (3R)-2-hydroxy-3-(2-((1-methylethyl)sulfonamido)-2-(4-phosphonophenyl)acetamido)-3,4-dihydro-2H-benzo[e][1,2]oxaborinine-8-carboxylic acid]	> 250	50 to 250	> 128	16 to 32 (≈ 30.4 to 60.8 µM)	16 to 32 (≈ 30.4 to 60.8 µM)	16 to 32 (≈ 30.4 to 60.8 µM)	16 to 32 (≈ 30.4 to 60.8 µM)	16 to 32 (≈ 30.4 to 60.8 µM)
CN1CCC[C@H]1C(=O)NC(C(=O)N[C@H]1Cc2cccc(C(=O)O)c2OB1O)c1ccc(P(=O)(O)O)cc1 (stereo partly shown) [Example 66]	50 to 250	10 to 50	32 to 64 (≈ 60.2 to 120 µM)	16 to 32 (≈ 30.1 to 60.2 µM)	4 to 8 (≈ 7.53 to 15.1 µM)	16 to 32 (≈ 30.1 to 60.2 µM)	16 to 32 (≈ 30.1 to 60.2 µM)	16 to 32 (≈ 30.1 to 60.2 µM)
CS(=O)(=O)N1CCC[C@H]1C(=O)N[C@H](C(=O)N[C@H]1Cc2cccc(C(=O)O)c2OB1O)c1ccc(P(=O)(O)O)cc1 [Example 43, (R)-2-hydroxy-3-((S)-2-((S)-1-(methylsulfonyl)pyrrolidine-2-carboxamido)-2-(4-phosphonophenyl)acetamido)-3,4-dihydro-2H-benzo[e][1,2]oxaborinine-8-carboxylic acid]	50 to 250	50 to 250	> 128	4 to 8 (≈ 6.72 to 13.4 µM)	4 to 8 (≈ 6.72 to 13.4 µM)	16 to 32 (≈ 26.9 to 53.8 µM)	4 to 8 (≈ 6.72 to 13.4 µM)	1 to 2 (≈ 1.68 to 3.36 µM)
O=C(O)c1cccc2c1OB(O)[C@@H](NC(=O)C(NC(=O)C1CC1)c1ccc(P(=O)(O)O)cc1)C2 (stereo partly drawn) [Example 30, (3R)-3-(2-(cyclopropanecarboxamido)-2-(4-phosphonophenyl)acetamido)-2-hydroxy-3,4-dihydro-2H-benzo[e][1,2]oxaborinine-8-carboxylic acid]	50 to 250	50 to 250	> 128	16 to 32 (≈ 32.8 to 65.5 µM)	4 to 8 (≈ 8.19 to 16.4 µM)	16 to 32 (≈ 32.8 to 65.5 µM)	16 to 32 (≈ 32.8 to 65.5 µM)	16 to 32 (≈ 32.8 to 65.5 µM)
O=C(O)c1cccc2c1OB(O)[C@@H](NC(=O)[C@H](NC(=O)c1c[nH]ccc1=O)c1ccc(P(=O)(O)O)cc1)C2 [Example 175, (R)-2-hydroxy-3-((R)-2-(4-oxo-1,4-dihydropyridine-3-carboxamido)-2-(4-phosphonophenyl)acetamido)-3,4-dihydro-2H-benzo[e][1,2]oxaborinine-8-carboxylic acid]	< 10	< 10	32 to 64 (≈ 59.1 to 118 µM)	1 to 2 (≈ 1.85 to 3.7 µM)	1 to 2 (≈ 1.85 to 3.7 µM)	16 to 32 (≈ 29.6 to 59.1 µM)	4 to 8 (≈ 7.39 to 14.8 µM)	4 to 8 (≈ 7.39 to 14.8 µM)
O=C(O)c1cccc2c1OB(O)[C@@H](NC(=O)[C@H](NC(=O)c1ccn[nH]c1=O)c1ccc(P(=O)(O)O)cc1)C2 (single isomer, unassigned) [Example 178]	< 10	< 10	32 to 64 (≈ 59 to 118 µM)	< 1	< 1	1 to 2 (≈ 1.84 to 3.69 µM)	1 to 2 (≈ 1.84 to 3.69 µM)	< 1
O=C(O)c1cccc2c1OB(O)[C@@H](NC(=O)C(NC(=O)c1ccc[nH]c1=O)c1ccc(P(=O)(O)O)cc1)C2 (stereo partly drawn) [Example 174, (3R)-2-hydroxy-3-(2-(2-oxo-1,2-dihydropyridine-3-carboxamido)-2-(4-phosphonophenyl)acetamido)-3,4-dihydro-2H-benzo[e][1,2]oxaborinine-8-carboxylic acid]	50 to 250	10 to 50	> 128	4 to 8 (≈ 7.39 to 14.8 µM)	1 to 2 (≈ 1.85 to 3.7 µM)	16 to 32 (≈ 29.6 to 59.1 µM)	16 to 32 (≈ 29.6 to 59.1 µM)	16 to 32 (≈ 29.6 to 59.1 µM)
O=C(O)c1cccc2c1OB(O)[C@@H](NC(=O)C(NC(=O)C1CCCCC1)c1ccc(P(=O)(O)O)cc1)C2 (stereo partly drawn) [Example 31, (3R)-3-(2-(cyclohexanecarboxamido)-2-(4-phosphonophenyl)acetamido)-2-hydroxy-3,4-dihydro-2H-benzo[e][1,2]oxaborinine-8-carboxylic acid]	50 to 250	10 to 50	> 128	16 to 32 (≈ 30.2 to 60.3 µM)	16 to 32 (≈ 30.2 to 60.3 µM)	16 to 32 (≈ 30.2 to 60.3 µM)	16 to 32 (≈ 30.2 to 60.3 µM)	16 to 32 (≈ 30.2 to 60.3 µM)
